Experimental data from patent publication US11807693B2 (priority 2014, dated 2023).
Like-named read-outs stand apart in the source and are kept apart here. Starred links: 1 amine or outer side, 2 acyl side, 3 side chain; linkers in the order of their positions; H or OH if unused. Non-standard residues stand in square brackets, D forms with d. Residues, ends and D or L forms follow the SMILES beside them. *: point of attachment. dBip = N[C@H](Cc1ccc(-c2ccccc2)cc1)C(=O)O; Oic = O=C(O)[C@@H]1C[C@@H]2CCCC[C@@H]2N1; Phe(4-Cl) = N[C@@H](Cc1ccc(Cl)cc1)C(=O)O; Phe(4-I) = N[C@@H](Cc1ccc(I)cc1)C(=O)O; γGlu = O=C(O)[C@H](CCC(=O)[*:2])N[*:1]; d(β3hF) = N[C@@H](CC(=O)O)Cc1ccccc1; NMeR = CN[C@@H](CCCNC(=N)N)C(=O)O; Palmitoyl = CCCCCCCCCCCCCCCC(=O)*; Tridecanoyl = CCCCCCCCCCCCC(=O)*; hArg = N=C(N)NCCCC[C@H](N)C(=O)O; Tic = O=C(O)[C@@H]1Cc2ccccc2CN1; Cha = N[C@@H](CC1CCCCC1)C(=O)O; NMeL = CN[C@@H](CC(C)C)C(=O)O; β3hL = CC(C)C[C@H](N)CC(=O)O; αMeP = C[C@@]1(C(=O)O)CCCN1; β3hP = O=C(O)C[C@@H]1CCCN1; Pip = O=C(O)[C@@H]1CCCCN1; Nle = CCCC[C@H](N)C(=O)O; Dap = NC[C@H](N)C(=O)O; AEEA = NCCOCCOCC(=O)O; Aib = CC(C)(N)C(=O)O; NPrGly = CCCNCC(=O)O

Key:
human APJ receptor = target: T1, human APJ receptor (Homo sapiens, UniProt P35414); test: [35S] GTPγS assay, human APJ receptor; assay type: biochemical
T1 construct: expressed in transfected cells
T1 sequence (P35414 1-380): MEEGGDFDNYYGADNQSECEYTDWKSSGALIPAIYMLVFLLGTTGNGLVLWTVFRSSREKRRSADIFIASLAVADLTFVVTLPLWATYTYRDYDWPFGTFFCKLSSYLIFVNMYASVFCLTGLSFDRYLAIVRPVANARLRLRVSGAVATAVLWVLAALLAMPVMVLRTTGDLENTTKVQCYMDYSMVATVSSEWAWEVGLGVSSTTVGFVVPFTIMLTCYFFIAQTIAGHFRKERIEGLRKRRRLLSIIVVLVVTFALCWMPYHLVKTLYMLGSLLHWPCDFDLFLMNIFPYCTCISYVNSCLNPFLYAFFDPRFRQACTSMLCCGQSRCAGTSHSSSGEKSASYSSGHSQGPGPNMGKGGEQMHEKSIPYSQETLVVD

rat APJ receptor = target: T2, rat APJ receptor (Rattus norvegicus, UniProt Q9JHG3); test: [35S] GTPγS assay, rat APJ receptor; assay type: biochemical
T2 construct: expressed in transfected cells
T2 sequence (Q9JHG3 1-377): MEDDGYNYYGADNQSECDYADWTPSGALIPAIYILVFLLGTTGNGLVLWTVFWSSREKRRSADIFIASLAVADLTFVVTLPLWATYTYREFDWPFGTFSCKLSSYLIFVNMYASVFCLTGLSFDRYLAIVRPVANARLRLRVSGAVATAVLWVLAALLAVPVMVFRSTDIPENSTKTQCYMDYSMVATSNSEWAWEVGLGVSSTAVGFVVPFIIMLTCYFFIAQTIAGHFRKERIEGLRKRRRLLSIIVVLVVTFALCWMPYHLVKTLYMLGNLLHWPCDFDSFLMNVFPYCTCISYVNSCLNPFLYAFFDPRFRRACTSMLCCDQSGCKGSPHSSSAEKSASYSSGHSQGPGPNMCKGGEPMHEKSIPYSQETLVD
Method: The membranes were incubated with modified peptides in the assay buffer. […] Bound [^35S] GTPγS was separated from free radiolabel by filtration. The filter bound radioactivity was determined by liquid scintillation counting.

[1] = In vitro stability in rat plasma; assay type: in vitro ADME
In short: (§1)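 Apelin peptides spiked to 5 μM final into rat plasma, liver homogenate or kidney homogenate and incubated at 37° C. for up to 4 hr. Aliquots quenched with MeOH containing internal standard, centrifuged, and supernatants analysed by high-resolution LC-MS.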

[2] = In vitro stability in rat liver homogenate; assay type: in vitro ADME; details: tissue homogenate
In short: as §1

[3] = rat APJ receptor, read-out: EC50 Rat APJ Receptor
[4] = Table 16, read-out: EC50 Rat APJ Receptor

Structure (SMILES)	EC50 (human APJ receptor; human APJ receptor)	EC50 (rat APJ receptor; [3])	EC50 (human APJ receptor; Table 16)	also measured
CCCCCCCCCCCCCCCC(=O)N[C@@H](CCC(=O)NCCOCCOCC(=O)NCCOCCOCC(=O)N[C@H](CCC(N)=O)C(=O)N[C@@H](CCCNC(=N)N)C(=O)N1CCC[C@H]1C(=O)N(C)[C@@H](CCCNC(=N)N)C(=O)N[C@@H](CC1CCCCC1)C(=O)N(CCC)CC(=O)N[C@@H](Cc1c[nH]cn1)C(=O)N[C@@H](CCCCN)C(=O)NCC(=O)N1CCCC[C@H]1C(=O)N[C@@H](CCCC)C(=O)NC(C)(C)C(=O)N[C@@H](Cc1ccc(Cl)cc1)C(=O)O)C(=O)O [compound 643] ({Palmitoyl-γGlu-AEEA-AEEA}-[dQ]RP[NMeR][Cha][NPrGly]HKG[Pip][Nle][Aib][Phe(4-Cl)]-OH)	0.463 nM	3.79 nM		
CCCCCCCCCCCCCCCC(=O)N[C@@H](CCC(=O)NCCOCCOCC(=O)NCCOCCOCC(=O)N[C@H](CCC(N)=O)C(=O)N[C@@H](CCCNC(=N)N)C(=O)N1CCC[C@H]1C(=O)N(C)[C@@H](CCCNC(=N)N)C(=O)N[C@@H](CC1CCCCC1)C(=O)N[C@@H](CO)C(=O)N[C@@H](CN)C(=O)N[C@@H](CCCCN)C(=O)NCC(=O)N1[C@H](C(=O)N[C@@H](CCCC)C(=O)N2CCC[C@H]2CC(=O)N[C@@H](CC(=O)O)Cc2ccccc2)C[C@@H]2CCCC[C@@H]21)C(=O)O [compound 616] ({Palmitoyl-γGlu-AEEA-AEEA}-[dQ]RP[NMeR][Cha]S[Dap]KG[Oic][Nle][β3hP][d(β3hF)]-OH)	2.75 nM	17.2 nM		
CC(C)C[C@@H](C(=O)N[C@@H](CO)C(=O)N[C@@H](Cc1c[nH]cn1)C(=O)N[C@@H](CCCCN)C(=O)NCC(=O)N1[C@H](C(=O)N[C@@H](Cc2ccc(I)cc2)C(=O)N2CCC[C@H]2C(=O)N[C@H](Cc2ccc(-c3ccccc3)cc2)C(=O)O)C[C@@H]2CCCC[C@@H]21)N(C)C(=O)[C@@H](CCCNC(=N)N)NC(=O)[C@@H]1CCCN1C(=O)[C@H](CCCCNC(=N)N)NC(=O)[C@H](CCC(N)=O)NC(=O)[C@@H](CCCNC(=N)N)NC(=O)[C@H](CCCCNC(=N)N)NC(=O)COCCOCCNC(=O)COCCOCCNC(=O)CC[C@H](NC(=O)CCCCCCCCC(=O)O)C(=O)O [compound 289]	0.914 nM	1.3 nM		
CCCCCCCCCCCCC(=O)N[C@@H](CCC(=O)NCCOCCOCC(=O)NCCOCCOCC(=O)N[C@H](CC(=O)N[C@@H](CCCNC(=N)N)C(=O)N1CCC[C@H]1C(=O)N(C)[C@@H](CCCNC(=N)N)C(=O)N[C@@H](CC(C)C)C(=O)N[C@@H](CO)C(=O)N[C@@H](Cc1c[nH]cn1)C(=O)N[C@@H](CCCCN)C(=O)NCC(=O)N1CCC[C@H]1C(=O)N[C@@H](CCCC)C(=O)N1CCC[C@H]1C(=O)N[C@@H](Cc1ccc(Cl)cc1)C(=O)O)CC(C)C)C(=O)O [compound 421] ({Tridecanoyl-γGlu-AEEA-AEEA}-[β3hL]RP[NMeR]LSHKGP[Nle]P[Phe(4-Cl)]-OH)	0.0934 nM	0.286 nM		
CCCCCCCCCCCCCCCC(=O)N[C@@H](CCC(=O)NCCOCCOCC(=O)NCCOCCOCC(=O)N[C@H](CCC(N)=O)C(=O)N[C@@H](CCCNC(=N)N)C(=O)N1CCC[C@H]1C(=O)N(C)[C@@H](CCCNC(=N)N)C(=O)N[C@@H](CC1CCCCC1)C(=O)N[C@@H](CO)C(=O)N[C@@H](Cc1c[nH]cn1)C(=O)N[C@@H](CCCCN)C(=O)NCC(=O)N1CCCC[C@H]1C(=O)N[C@@H](CCCC)C(=O)N1CCCC(C(=O)N[C@@H](Cc2ccc(Cl)cc2)C(=O)O)C1)C(=O)O (single isomer, unassigned) [compound 588]	1.52 nM			remaining at 4 h, 5 μM [1]: > 90%
CCCCCCCCCCCCC(=O)N[C@@H](CCC(=O)NCCOCCOCC(=O)NCCOCCOCC(=O)N[C@@H](CCCCNC(=N)N)C(=O)N[C@H](CCCNC(=N)N)C(=O)N[C@@H](CCC(N)=O)C(=O)N[C@@H](CCCCNC(=N)N)C(=O)N1CCC[C@H]1C(=O)N[C@@H](CCCCN)C(=O)N(C)[C@@H](CC(C)C)C(=O)N[C@@H](CO)C(=O)N[C@@H](Cc1c[nH]cn1)C(=O)N[C@@H](CCCC)C(=O)NCC(=O)N1[C@H](C(=O)N[C@@H](Cc2ccc(I)cc2)C(=O)N2CCC[C@H]2C(=O)N[C@H](Cc2ccc(-c3ccccc3)cc2)C(=O)O)C[C@@H]2CCCC[C@@H]21)C(=O)O [compound 313] ({Tridecanoyl-γGlu-AEEA-AEEA}-[hArg][dR]Q[hArg]PK[NMeL]SH[Nle]G[Oic][Phe(4-I)]P[dBip]-OH)	14.7 nM	10.4 nM		
CCCCCCCCCCCCC(=O)N[C@@H](CCC(=O)NCCOCCOCC(=O)NCCOCCOCC(=O)N[C@H](CCC(N)=O)C(=O)N[C@@H](CCCNC(=N)N)C(=O)N1CCC[C@H]1C(=O)N(C)[C@@H](CCCNC(=N)N)C(=O)N[C@@H](CC1CCCCC1)C(=O)N[C@@H](CO)C(=O)N[C@@H](Cc1c[nH]cn1)C(=O)N[C@@H](CCCCN)C(=O)NCC(=O)N1CCC[C@@]1(C)C(=O)N[C@@H](CCCC)C(=O)N[C@@H](Cc1ccc(Cl)cc1)C(=O)O)C(=O)O [compound 551] ({Tridecanoyl-γGlu-AEEA-AEEA}-[dQ]RP[NMeR][Cha]SHKG[αMeP][Nle][Phe(4-Cl)]-OH)			0.235 nM	EC50 (rat APJ receptor; [4]): 1.15 nM
CCCCCCCCCCCCC(=O)N[C@@H](CCC(=O)NCCOCCOCC(=O)NCCOCCOCC(=O)N[C@@H](CCCCNC(=N)N)C(=O)N[C@H](CCCNC(=N)N)C(=O)N[C@@H](CCC(N)=O)C(=O)N[C@@H](CCCCNC(=N)N)C(=O)N1CCC[C@H]1C(=O)N[C@@H](CCCC)C(=O)N(C)[C@@H](CC(C)C)C(=O)N[C@@H](C)C(=O)N[C@@H](C)C(=O)N[C@@H](CCCCN)C(=O)NCC(=O)N1[C@H](C(=O)N[C@@H](Cc2ccc(I)cc2)C(=O)N2CCC[C@H]2C(=O)N[C@H](Cc2ccc(-c3ccccc3)cc2)C(=O)O)C[C@@H]2CCCC[C@@H]21)C(=O)O [compound 329] ({Tridecanoyl-γGlu-AEEA-AEEA}-[hArg][dR]Q[hArg]P[Nle][NMeL]AAKG[Oic][Phe(4-I)]P[dBip]-OH)	37.6 nM	36.2 nM		
CCCCCCCCCCCCC(=O)N[C@@H](CCC(=O)NCCOCCOCC(=O)NCCOCCOCC(=O)N[C@@H](CCC(N)=O)C(=O)N[C@@H](CCCNC(=N)N)C(=O)N1CCC[C@H]1C(=O)N1CCC[C@H]1C(=O)N[C@@H](CC(C)C)C(=O)N[C@@H](CO)C(=O)N[C@@H](Cc1c[nH]cn1)C(=O)N[C@@H](CCCCN)C(=O)NCC(=O)N1CCC[C@H]1C(=O)N[C@@H](CCCC)C(=O)N1CCC[C@H]1C(=O)N[C@@H](Cc1ccc(Cl)cc1)C(=O)O)C(=O)O [compound 427] ({Tridecanoyl-γGlu-AEEA-AEEA}-QRPPLSHKGP[Nle]P[Phe(4-Cl)]-OH)			0.171 nM	EC50 (rat APJ receptor; [4]): 0.313 nM
CCCCCCCCCCCCC(=O)N[C@@H](CCC(=O)NCCOCCOCC(=O)NCCOCCOCC(=O)N[C@H](CCCNC(=N)N)C(=O)N[C@H](CCC(N)=O)C(=O)N[C@@H](CCCCNC(=N)N)C(=O)N1CCC[C@H]1C(=O)N[C@@H](CCCCNC(=N)N)C(=O)N[C@@H](CC1CCCCC1)C(=O)N[C@@H](CO)C(=O)N[C@@H](Cc1c[nH]cn1)C(=O)N[C@@H](CCCCN)C(=O)NCC(=O)N1[C@H](C(=O)N[C@@H](CCCC)C(=O)N2CCC[C@H]2C(=O)N[C@@H](Cc2ccc(Cl)cc2)C(=O)O)C[C@@H]2CCCC[C@@H]21)C(=O)O [compound 481] ({Tridecanoyl-γGlu-AEEA-AEEA}-[dR][dQ][hArg]P[hArg][Cha]SHKG[Oic][Nle]P[Phe(4-Cl)]-OH)			0.177 nM	EC50 (rat APJ receptor; [4]): 0.341 nM
CCCCCCCCCCCCCCCC(=O)N[C@@H](CCC(=O)NCCOCCOCC(=O)NCCOCCOCC(=O)N[C@H](CCC(N)=O)C(=O)N[C@@H](CCCNC(=N)N)C(=O)N1CCC[C@H]1C(=O)N(C)[C@@H](CCCNC(=N)N)C(=O)N[C@@H](CC1CCCCC1)C(=O)N[C@@H](CO)C(=O)N[C@@H](Cc1c[nH]cn1)C(=O)N[C@@H](CCCCN)C(=O)NCC(=O)N1CCCC[C@H]1C(=O)N[C@@H](CCCC)C(=O)N1CCC[C@H]1C(=O)N1Cc2ccccc2C[C@H]1C(=O)O)C(=O)O [compound 598] ({Palmitoyl-γGlu-AEEA-AEEA}-[dQ]RP[NMeR][Cha]SHKG[Pip][Nle]P[Tic]-OH)	0.463 nM	2.85 nM		
CCCCCCCCCCCCC(=O)N[C@@H](CCC(=O)NCCOCCOCC(=O)NCCOCCOCC(=O)N[C@@H](CCC(N)=O)C(=O)N[C@@H](CCCNC(=N)N)C(=O)N1CCC[C@H]1C(=O)N(C)[C@@H](CCCCNC(=N)N)C(=O)N[C@@H](CC(C)C)C(=O)N[C@@H](CO)C(=O)N[C@@H](Cc1c[nH]cn1)C(=O)N[C@@H](CCCCN)C(=O)NCC(=O)N1CCC[C@H]1C(=O)N[C@@H](CCCC)C(=O)N1CCC[C@H]1C(=O)N[C@@H](Cc1ccc2ccccc2c1)C(=O)O)C(=O)O [compound 471]			0.0229 nM	remaining at 4 h, 5 μM [1]: 52%; remaining at 4 h, 5 μM [2]: < 1%
